Tests used:
Format in all cases: functional, organism-based
Simian rotavirus [1] = test: Inhibitory concentration against Simian rotavirus SA-11 strain; settings: Rotavirus A
Simian rotavirus [2] = test: Inhibitory concentration against Simian rotavirus SA-11 strain; No inhibition
Rotavirus [3] = test: Inhibitory concentration against human rotavirus MO strain; No inhibition
Rotavirus [4] = test: Inhibitory concentration against human rotavirus MO strain

Work on `CC(=O)NC1C(O)CC(O)(C(=O)O)OC1C(O)C(O)CO` (stereo not given) yielded an IC50 (Simian rotavirus [1]) of 4280 µM.

In the case of `CCCCCCCCCCCCCCCCCC(=O)OCC(COP(=O)([O-])OCC[N+](C)(C)C)OC(=O)CCCCCCCCCCCCCCCCC` (stereo not given), the IC50 (Simian rotavirus [2]) is reported as “Not Active” and the IC50 (Rotavirus [3]) is reported as “Not Active”.

For `CCCCCCCCCCCCCCCCCC(=O)OCC(COP(=O)(O)OCCCCCCCCOC1(C(=O)O)CC(O)C(NC(C)=O)C([C@H](O)[C@H](O)CO)O1)OC(=O)CCCCCCCCCCCCCCCCC` (stereo not given in full), the IC50 (Rotavirus [4]) was 16.1 µM and the IC50 (Simian rotavirus [1]) was 4.35 µM.

— ChEMBL document CHEMBL1130183, “Synthesis of a novel sialic acid derivative (sialylphospholipid) as an antirotaviral agent” (J Med Chem, 1997)
